Results: ChEMBL document CHEMBL1138844, “Synthesis and biological evaluation of 1-aryl-4,5-dihydro-1H-pyrazolo[3,4-d]pyrimidin-4-one inhibitors of cyclin-dependent kinases” (J Med Chem, 2004)

Assays:
[1] = target: T1, Cyclin-dependent kinase 4/cyclin D1 (Homo sapiens, UniProt P11802); assay: Inhibition of Cyclin-dependent kinase 4-cyclin D1; format: protein-complex assay
[2] = target: Cyclin-dependent kinase 1/cyclin B (Homo sapiens, UniProt P06493); assay: Inhibition of Cyclin-dependent kinase 1-cyclin B; format: protein-complex assay
HCT-116 [3] = assay: Inhibition of human colon carcinoma cell (HCT116) proliferation; format: functional, cell-based
[4] = target: Cyclin-dependent kinase 2/cyclin E (Homo sapiens, UniProt P24941)
Description: Inhibition of Cyclin-dependent kinase 2-cyclin E

HCT-116 [5] = assay: Concentration required for growth inhibition of human colon carcinoma cell line HCT116; format: functional, cell-based
AG1523 = assay: Concentration required for growth inhibition of human fibroblast cell line Ag 1523; format: functional, cell-based
[6] = Inhibition of Protein Kinase A activity
[7] = target: Tyrosine-protein kinase ABL1 (Homo sapiens, UniProt P00519)
Description: Inhibition of c-Abl tyrosine kinase activity

[8] = target: T1, Cyclin-dependent kinase 4/cyclin D1; assay: Inhibition of Cyclin-dependent kinase 4/cyclin D1; format: protein-complex assay
[9] = Partition coefficient (logP); format: physicochemical; conditions: octanol/water
HCT-116 [10] = assay: Inhibitory concentration against human colon cell line HCT116 was determined; format: functional, cell-based
DU-145 = assay: Inhibitory concentration against human prostate cell line DU145 was determined; format: functional, cell-based
A498 = assay: Inhibitory concentration against human kidney cell line A498 was determined; format: functional, cell-based
[11] = Inhibitory concentration against NCI H460 cell line was determined; format: functional, cell-based, Homo sapiens
T47D = assay: Inhibitory concentration against human breast cell line T47D was determined; format: functional, cell-based
[12] = Inhibitory concentration against human breast cell line MDA MB468 was determined; format: functional, cell-based; conditions: mda-mb-468
COLO 205 = assay: Inhibitory concentration against human colon cell line COLO 205 was determined; format: functional, cell-based
MCF7 = assay: Inhibitory concentration against human breast cell line MCF-7 was determined; format: functional, cell-based

T1 sequence (P11802 whole entry): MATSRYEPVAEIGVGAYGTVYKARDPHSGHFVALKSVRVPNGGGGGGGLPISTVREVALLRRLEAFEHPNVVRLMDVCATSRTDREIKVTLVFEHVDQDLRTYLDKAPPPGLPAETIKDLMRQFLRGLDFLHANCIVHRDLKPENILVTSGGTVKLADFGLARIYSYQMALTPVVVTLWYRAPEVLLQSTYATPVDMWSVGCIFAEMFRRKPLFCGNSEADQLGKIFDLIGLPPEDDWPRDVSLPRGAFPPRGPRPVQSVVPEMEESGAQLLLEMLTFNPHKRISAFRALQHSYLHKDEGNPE
T1 sequence (P24385 whole entry, further chain): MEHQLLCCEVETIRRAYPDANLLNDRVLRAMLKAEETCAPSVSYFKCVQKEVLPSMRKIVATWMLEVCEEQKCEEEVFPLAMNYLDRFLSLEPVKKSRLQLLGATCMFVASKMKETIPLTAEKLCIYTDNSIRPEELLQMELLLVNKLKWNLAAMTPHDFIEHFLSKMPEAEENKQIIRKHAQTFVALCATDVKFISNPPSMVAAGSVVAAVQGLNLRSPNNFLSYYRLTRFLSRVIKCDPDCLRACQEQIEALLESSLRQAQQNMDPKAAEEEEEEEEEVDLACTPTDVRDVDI
Sequence of Tyrosine-protein kinase ABL1 (P00519 whole entry): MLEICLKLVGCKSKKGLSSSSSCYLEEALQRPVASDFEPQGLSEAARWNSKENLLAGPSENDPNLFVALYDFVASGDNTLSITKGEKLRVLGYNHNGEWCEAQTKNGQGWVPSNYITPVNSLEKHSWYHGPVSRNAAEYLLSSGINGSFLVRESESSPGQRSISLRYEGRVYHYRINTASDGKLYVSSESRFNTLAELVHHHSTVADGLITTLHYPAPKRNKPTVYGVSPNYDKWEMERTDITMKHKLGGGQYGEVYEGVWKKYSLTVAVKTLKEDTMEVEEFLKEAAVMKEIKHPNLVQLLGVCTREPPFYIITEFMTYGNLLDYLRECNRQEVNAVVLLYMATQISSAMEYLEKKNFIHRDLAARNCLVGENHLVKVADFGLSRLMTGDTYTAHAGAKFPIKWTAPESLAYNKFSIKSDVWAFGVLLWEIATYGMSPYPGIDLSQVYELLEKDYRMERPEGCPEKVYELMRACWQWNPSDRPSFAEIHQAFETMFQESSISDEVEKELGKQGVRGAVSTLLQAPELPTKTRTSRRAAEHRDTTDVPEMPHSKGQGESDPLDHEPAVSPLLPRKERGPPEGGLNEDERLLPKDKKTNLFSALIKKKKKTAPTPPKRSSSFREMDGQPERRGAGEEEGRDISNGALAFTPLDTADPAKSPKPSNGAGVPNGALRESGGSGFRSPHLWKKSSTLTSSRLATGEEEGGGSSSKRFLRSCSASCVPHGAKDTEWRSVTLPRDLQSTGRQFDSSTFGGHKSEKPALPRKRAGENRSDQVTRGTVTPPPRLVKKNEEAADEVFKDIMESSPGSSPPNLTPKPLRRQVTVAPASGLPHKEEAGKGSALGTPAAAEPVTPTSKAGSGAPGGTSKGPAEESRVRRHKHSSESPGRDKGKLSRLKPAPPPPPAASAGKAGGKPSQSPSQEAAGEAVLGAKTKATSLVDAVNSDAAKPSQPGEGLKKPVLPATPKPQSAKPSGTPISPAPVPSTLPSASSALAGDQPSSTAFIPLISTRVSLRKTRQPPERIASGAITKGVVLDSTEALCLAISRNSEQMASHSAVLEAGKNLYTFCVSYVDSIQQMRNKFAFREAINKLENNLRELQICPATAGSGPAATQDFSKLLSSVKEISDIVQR

Row | SMILES | IC50 [1] [nM] | IC50 [2] [nM] | IC50 (HCT-116 [3]) [nM] | IC50 [4] [nM] | other results
1 | CCc1nn(-c2c(Cl)cc(Cl)cc2Cl)c2nc(Cc3ccccc3)[nH]c(=O)c12 | 3000 | 260 | 600 | 20 | –
2 | CCc1nn(-c2c(Cl)cc(Cl)cc2Cl)c2nc(Cc3cccnc3)[nH]c(=O)c12 | 1300 | 220 | 300 | 10 | –
3 | CCc1nn(-c2c(Cl)cc(Cl)cc2Cl)c2nc(Cc3cccc(O)c3)[nH]c(=O)c12 | 60 | 190 | 400 | 10 | –
4 | CCc1nn(-c2c(Cl)cc(Cl)cc2Cl)c2nc(Cc3ccc(OC)cc3)[nH]c(=O)c12 | 2200 | 150 | 600 | 10 | –
5 | CCc1nn(-c2c(Cl)cc(Cl)cc2Cl)c2nc(Cc3cccc(OC)c3)[nH]c(=O)c12 | 5000 | 410 | 1700 | 30 | –
6 | CCc1nn(-c2c(Cl)cc(Cl)cc2Cl)c2nc(Cc3ccc(NC(=O)CN)cc3)nc(O)c12 | 460 | 70 | 120 | 10 | logP [9]: 3.3
7 | CCc1nn(-c2c(Cl)cc(Cl)cc2Cl)c2nc(Cc3ccc(OC)c(OC)c3)[nH]c(=O)c12 | 4500 | > 510 | 610 | 110 | –
8 | CN1CCC(c2c(O)cc(O)c3c(=O)cc(-c4ccccc4Cl)oc23)[C@@H](O)C1 (mixture of isomers) | – | – | – | – | IC50 (HCT-116 [5]): 490 nM; IC50 (AG1523): 6700 nM; IC50 [6]: > 500000 nM
9 | CCc1nn(-c2c(Cl)cc(Cl)cc2Cl)c2nc(Cc3ccc(N(C)C)cc3)[nH]c(=O)c12 | > 2100 | > 260 | 340 | 20 | –
10 | CCc1nn(-c2c(Cl)cc(Cl)cc2Cl)c2nc(Cc3cccc(N)c3)[nH]c(=O)c12 | 2900 | 270 | 470 | 40 | –
11 | CCc1nn(-c2c(Cl)cc(Cl)cc2Cl)c2nc(Cc3ccc(O)c(OC)c3)[nH]c(=O)c12 | 6600 | 860 | 320 | 70 | –
12 | CN[C@@H]1C[C@H]2O[C@@](C)([C@@H]1OC)n1c3ccccc3c3c4c(c5c6ccccc6n2c5c31)C(=O)NC4 [STAUROSPORINE] | – | – | – | – | IC50 (HCT-116 [5]): 6 nM
13 | CCc1nn(-c2c(Cl)cc(Cl)cc2Cl)c2nc(Cc3ccc(OC)c(O)c3)[nH]c(=O)c12 | 20 | 200 | 130 | 10 | –
14 | CCc1nn(-c2c(Cl)cc(Cl)cc2Cl)c2nc(Cc3ccc(O)cc3)[nH]c(=O)c12 | 2000 | 100 | 90 | 10 | –
15 | CCc1nn(-c2c(Cl)cc(Cl)cc2Cl)c2nc(Cc3cccc(C)c3)[nH]c(=O)c12 | > 2200 | > 560 | 2100 | 390 | –
16 | CCc1nn(-c2c(Cl)cc(Cl)cc2Cl)c2nc(Cc3ccc(NC(=O)CNC(=O)OC(C)(C)C)cc3)[nH]c(=O)c12 | 1700 | 180 | 160 | 10 | logP [9]: 4.9
17 | CCc1nn(-c2c(Cl)cc(Cl)cc2Cl)c2nc(Cc3ccc(NC(C)=O)cc3)[nH]c(=O)c12 | 1300 | 30 | 20 | 9 | logP [9]: 3.9

The next lines start with results.

Row | IC50 [1] [nM] | IC50 [2] [nM] | IC50 (HCT-116 [3]) [nM] | IC50 [4] [nM] | SMILES | other results
18 | 2100 | 6200 | – | 360 | CSc1nn(-c2c(Cl)cc(Cl)cc2Cl)c2nc(C)[nH]c(=O)c12 | IC50 (HCT-116 [5]): 2500 nM; IC50 (AG1523): 9200 nM; IC50 [6]: > 500000 nM; IC50 [7]: 420000 nM; IC50 [8]: 2100 nM
19 | > 2200 | > 270 | 500 | 20 | CCc1nn(-c2c(Cl)cc(Cl)cc2Cl)c2nc(Cc3ccc(O)c(C)c3)[nH]c(=O)c12 | –
20 | 2900 | > 270 | 490 | 20 | CCc1nn(-c2c(Cl)cc(Cl)cc2Cl)c2nc(Cc3ccccc3CO)[nH]c(=O)c12 | –
21 | 590 | 100 | 30 | 10 | CN(C)c1ccc(C(=C2C=CC(=[N+](C)C)C=C2)c2ccc(N(C)C)cc2)cc1.CN(C)c1ccc(C(=C2C=CC(=[N+](C)C)C=C2)c2ccc(N(C)C)cc2)cc1.CN=C1C=CC(=C(c2ccc(N(C)C)cc2)c2ccc(N(C)C)cc2)C=C1 | IC50 (HCT-116 [10]): 34 nM; IC50 (DU-145): 15 nM; IC50 (A498): 57 nM; IC50 [11]: 16 nM; IC50 (T47D): 16 nM; IC50 [12]: 12 nM; logP [9]: 4.2; IC50 (COLO 205): 13 nM; IC50 (MCF7): 14 nM
22 | 3000 | 490 | 550 | 30 | CCc1nn(-c2c(Cl)cc(Cl)cc2Cl)c2nc(Cc3ccncc3)[nH]c(=O)c12 | –
23 | 2700 | 150 | 420 | 10 | CCc1nn(-c2c(Cl)cc(Cl)cc2Cl)c2nc(Cc3ccc(N)cc3)[nH]c(=O)c12 | logP [9]: 3.8
24 | > 2200 | > 270 | 190 | 10 | CCc1nn(-c2c(Cl)cc(Cl)cc2Cl)c2nc(Cc3cccc(N)c3C)[nH]c(=O)c12 | –
25 | > 2100 | 870 | 2100 | 60 | CCc1nn(-c2c(Cl)cc(Cl)cc2Cl)c2nc(Cc3ccc(OC)c(C)c3)[nH]c(=O)c12 | –
